In patent EP4679096A1, “BIOMARKERS AND METHOD FOR ESTIMATING BRAIN NEURODEGENERATIVE CONDITION” (SHIMADZU CORPORATION, priority 2023, dated 2024):
Peptide text beside a SMILES is read from it.

Assay: Effect of plasma handling (thawed, about 2 hours at room temperature, re-frozen: RT2h-FT1) on NI of Ng peptides
Format: in vitro ADME, human
Conditions: FIG. 1
Description: Among the 161 samples, samples obtained by thawing cryopreserved samples, placing the samples at room temperature for about 2 hours, and then re-freezing the samples are also included. In order to investigate the influence of this process on the measured value of the Ng peptide, the Ng peptide to be analyzed was evaluated using a part of the sample. In the measurement of the sample that was thawed, left at room temperature for about 2 hours, and then re-frozen (sample under the RT2h-FT1 condition), the above [purification] [mass spectrometry] was performed except that SIL-Ng50-78 was used as the internal standard peptide, and the internal standard peptide was diluted with the first buffer. The above [purification] [mass spectrometry] was also performed on the samples not subjected to the RT2h-FT1 process (samples under control conditions). For these, data processing was performed using data obtained by simultaneously measuring SIL-Ng50-78 and SIL-Ng45-75 and SIL-Ng24-75 such that the measured value of the RT2h-FT1 condition normalized with SIL-Ng50-78 was NI normalized with SIL-Ng45-75 and SIL-Ng24-75.
From this, it can be seen that the decomposition of the Ng peptide proceeds by the time for which the plasma is stored in a thawed state and/or freeze-thawing. […]

Compound | change of NI under the RT2h-FT1 condition compared with the Control condition (decomposition in plasma)
CC[C@H](C)[C@H](NC(=O)[C@@H](N)CCCCN)C(=O)N[C@@H](CCCCN)C(=O)N[C@@H](CO)C(=O)NCC(=O)N[C@@H](CCC(=O)O)C(=O)N[C@@H](CCCNC(=N)N)C(=O)NCC(=O)N[C@@H](CCCNC(=N)N)C(=O)N[C@@H](CCCCN)C(=O)NCC(=O)N1CCC[C@H]1C(=O)NCC(=O)N1CCC[C@H]1C(=O)NCC(=O)NCC(=O)N1CCC[C@H]1C(=O)NCC(=O)NCC(=O)N[C@@H](C)C(=O)NCC(=O)N[C@H](C(=O)N[C@@H](C)C(=O)N[C@@H](CCCNC(=N)N)C(=O)NCC(=O)NCC(=O)N[C@@H](C)C(=O)NCC(=O)NCC(=O)NCC(=O)N1CCC[C@H]1C(=O)O)C(C)C [Ng45-75] (H-KIKSGERGRKGPGPGGPGGAGVARGGAGGGP-OH) | smaller decrease width due to decomposition than the other Ng peptides
CC(C)[C@H](NC(=O)CNC(=O)[C@H](C)NC(=O)CNC(=O)CNC(=O)[C@@H]1CCCN1C(=O)CNC(=O)CNC(=O)[C@@H]1CCCN1C(=O)CNC(=O)[C@@H]1CCCN1C(=O)CNC(=O)[C@H](CCCCN)NC(=O)[C@H](CCCNC(=N)N)NC(=O)CNC(=O)[C@H](CCCNC(=N)N)NC(=O)[C@@H](N)CCC(=O)O)C(=O)N[C@@H](C)C(=O)N[C@@H](CCCNC(=N)N)C(=O)NCC(=O)NCC(=O)N[C@@H](C)C(=O)NCC(=O)NCC(=O)NCC(=O)N1CCC[C@H]1C(=O)O [Ng50-75] (H-ERGRKGPGPGGPGGAGVARGGAGGGP-OH) | smaller decrease width due to decomposition than the other Ng peptides
